From ChEMBL document CHEMBL1201862, “PubChem BioAssay data set” (2004)
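Where inhibition never reached the appropriate level, the endpoint shown equals the highest concentration tested. Otherwise, values were interpolated linearly from a five-concentration, 48-hour dose response in 96-well plates. GI50 is the concentration that inhibits growth by half.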 Active and inactive are the calls of the source. Cut-off read from the data, not from the text of the source: active = GI50 up to about 1.1 µM and inactive = higher.

Key:
Assay in all cases: NCI-60 cell line screen, 48 h
[1] = tested on: SNB-75
[2] = tested on: SK-MEL-2
[3] = tested on: RPMI-8226
[4] = tested on: SK-MEL-28
[5] = tested on: UACC-62
[6] = tested on: LOX IMVI
[7] = tested on: HOP-92
[8] = tested on: SK-OV-3
[9] = tested on: Hs-578T
[10] = tested on: SN12C
[11] = tested on: NCI-H23
[12] = tested on: OVCAR-5
[13] = tested on: HL-60
[14] = tested on: A498
[15] = tested on: UO-31
[16] = tested on: T47D
[17] = tested on: KM12
[18] = tested on: K562
[19] = tested on: A549
[20] = tested on: MDA-MB-435

Row | SMILES | GI50 [1] | GI50 [2] | GI50 [3] | GI50 [4] | GI50 [5] | GI50 [6] | GI50 [7] | GI50 [8] | GI50 [9] | GI50 [10] | GI50 [11] | GI50 [12] | GI50 [13] | GI50 [14] | GI50 [15] | GI50 [16] | GI50 [17] | GI50 [18] | GI50 [19] | GI50 [20]
1 | O=C1Nc2ccccc2/C1=N/NS(=O)(=O)c1ccc(C(=O)O)cc1 | > 100 µM (inactive) | > 100 µM (inactive) | > 100 µM (inactive) | > 100 µM (inactive) | > 100 µM (inactive) | > 100 µM (inactive) | > 100 µM (inactive) | > 100 µM (inactive) | > 100 µM (inactive) | > 100 µM (inactive) | > 100 µM (inactive) | > 100 µM (inactive) | > 100 µM (inactive) | > 100 µM (inactive) | > 100 µM (inactive) | > 100 µM (inactive) | > 100 µM (inactive) | > 100 µM (inactive) | > 100 µM (inactive) | > 100 µM (inactive)
2 | CCCCCCCCCCCCCCCCNc1nc(=O)n(C2CC(O)C(COP(=O)(O)OC3CC(n4cc(F)c(=O)[nH]c4=O)OC3CO)O2)cc1F (stereo unspecified) | 4.98 µM (inactive) | 30.1 µM (inactive) | 0.0822 µM (active) | 14.2 µM (inactive) | 0.337 µM (active) | 0.0637 µM (active) | 4.38 µM (inactive) | 11.6 µM (inactive) | 15.6 µM (inactive) | 0.264 µM (active) | 0.44 µM (active) | 29.7 µM (inactive) | 0.328 µM (active) | 0.09 µM (active) | 0.257 µM (active) | 6.68 µM (inactive) | 20.7 µM (inactive) | 1.41 µM (inactive) | 0.0333 µM (active) | 13.1 µM (inactive)
3 | COC1(CC[C@H](C)COC2OC(CO)C(O)C(O)C2O)O[C@H]2C[C@H]3[C@@H]4CC=C5C[C@@H](OC6OC(CO)C(O)C(OC7OC(CO)C(O)C(O)C7O)C6OC6OC(C)C(O)C(O)C6O)CC[C@]5(C)[C@H]4CC[C@]3(C)[C@H]2[C@@H]1C (stereo partly specified) | 2.55 µM (inactive) | 8.77 µM (inactive) | 2.54 µM (inactive) | 2.31 µM (inactive) | 3.7 µM (inactive) | 2.68 µM (inactive) | 3.37 µM (inactive) | 12.1 µM (inactive) | 11 µM (inactive) | 5.41 µM (inactive) | 6.52 µM (inactive) | 6.07 µM (inactive) | 3.12 µM (inactive) | 17.8 µM (inactive) | 2.14 µM (inactive) | 2.61 µM (inactive) | 1.98 µM (inactive) | 4.88 µM (inactive) | 2.73 µM (inactive) | 1.87 µM (inactive)
4 | Fc1ccc(OCc2ccc3nc(-c4ccccc4)c(Cl)nc3c2)cc1 | 16.7 µM (inactive) | 41.9 µM (inactive) | 96.2 µM (inactive) | 69.3 µM (inactive) | 28.8 µM (inactive) | 88.5 µM (inactive) | 25.7 µM (inactive) |  | 24.7 µM (inactive) | 56.6 µM (inactive) | 25.3 µM (inactive) | 41.7 µM (inactive) | 33.3 µM (inactive) | 25.8 µM (inactive) | > 100 µM (inactive) | 31.6 µM (inactive) | 51.6 µM (inactive) |  | 38.6 µM (inactive) | 91.4 µM (inactive)
5 | O=C(/C=C(O)/C(=C/C(=O)c1ccccc1)NN=C(c1ccccc1)c1ccccc1)c1ccccc1 | 49.7 µM (inactive) | 25.8 µM (inactive) | 24.4 µM (inactive) | 51.6 µM (inactive) | 17.1 µM (inactive) | 38.3 µM (inactive) | 60.4 µM (inactive) | 25.8 µM (inactive) | 29.2 µM (inactive) | 30.2 µM (inactive) | 24 µM (inactive) | > 100 µM (inactive) | 1.57 µM (inactive) | 32.4 µM (inactive) | 47.6 µM (inactive) | 32.4 µM (inactive) | 42.3 µM (inactive) | 15.2 µM (inactive) | 36.1 µM (inactive) | 31 µM (inactive)
6 | O=c1[nH]nc(Cc2ccccc2)n1/N=C\c1ccccc1 | 32.3 µM (inactive) | 31.2 µM (inactive) | > 100 µM (inactive) | > 100 µM (inactive) | 95.5 µM (inactive) | > 100 µM (inactive) | 46.2 µM (inactive) |  | 76.2 µM (inactive) | > 100 µM (inactive) | > 100 µM (inactive) | > 100 µM (inactive) | > 100 µM (inactive) | > 100 µM (inactive) | > 100 µM (inactive) | > 100 µM (inactive) | > 100 µM (inactive) | > 100 µM (inactive) | > 100 µM (inactive) | > 100 µM (inactive)
7 | CCOc1c2ccsc2c(OCC)c2ccsc12 | 3.31 µM (inactive) | > 30.1 µM (inactive) | 4.06 µM (inactive) | 9.38 µM (inactive) | 3.85 µM (inactive) | 2.61 µM (inactive) | 2.57 µM (inactive) | 3.92 µM (inactive) | 4.21 µM (inactive) | 20.6 µM (inactive) | 4.34 µM (inactive) | 11.8 µM (inactive) | 2.07 µM (inactive) | 7.03 µM (inactive) | 9.02 µM (inactive) | 3.94 µM (inactive) | 3.77 µM (inactive) | 2.95 µM (inactive) | 7.21 µM (inactive) | 0.766 µM (active)
8 | CC(=O)N1NC(c2ccccc2)=NC(=O)C1c1cc(C)c(O)c(C)c1 (stereo unspecified) | 19.9 µM (inactive) | 28.1 µM (inactive) | 52.7 µM (inactive) | 54.6 µM (inactive) | 20.3 µM (inactive) | 36.3 µM (inactive) | 19.8 µM (inactive) | 18.7 µM (inactive) | 29.8 µM (inactive) | 27.5 µM (inactive) | 24 µM (inactive) | 36.2 µM (inactive) | > 100 µM (inactive) | 28.3 µM (inactive) | 21.7 µM (inactive) | 22.4 µM (inactive) | 36 µM (inactive) | > 100 µM (inactive) | 24.4 µM (inactive) | 64.4 µM (inactive)
9 | COC(=O)/C=C1\C(=O)N(C(C)=O)c2ccccc21 | 12.5 µM (inactive) | 16.9 µM (inactive) | 11.9 µM (inactive) | 12.3 µM (inactive) | 4.27 µM (inactive) | 3.91 µM (inactive) | 2.04 µM (inactive) | 14.8 µM (inactive) | 4.17 µM (inactive) | 6.22 µM (inactive) | 14.6 µM (inactive) | 22.1 µM (inactive) | 2.03 µM (inactive) | 0.0371 µM (active) | 12.9 µM (inactive) | 8.39 µM (inactive) | 12.7 µM (inactive) | 5.61 µM (inactive) | 7.18 µM (inactive) | 11.3 µM (inactive)
10 | N=C(N)NC1C(O)C(O)C(O)C(NC(=N)N)C1O (stereo unspecified) | > 100 µM (inactive) | > 100 µM (inactive) | > 100 µM (inactive) | > 100 µM (inactive) | > 100 µM (inactive) | > 100 µM (inactive) | > 100 µM (inactive) | > 100 µM (inactive) | > 100 µM (inactive) | > 100 µM (inactive) | > 100 µM (inactive) | > 100 µM (inactive) | > 100 µM (inactive) | > 100 µM (inactive) | > 100 µM (inactive) | > 100 µM (inactive) | > 100 µM (inactive) | > 100 µM (inactive) | > 100 µM (inactive) | > 100 µM (inactive)
11 | CC(=O)OCC1OC(Oc2cc(C)c(O)cc2C/C=C(\C)CC/C=C(\C)CC(=O)CC(C)C)C(O)C(OC(C)=O)C1OC(C)=O (stereo unspecified) | > 50 µM (inactive) | 10.2 µM (inactive) | 9.16 µM (inactive) | 27.4 µM (inactive) | 13 µM (inactive) | 13 µM (inactive) | 45.8 µM (inactive) | 26.2 µM (inactive) | 11.9 µM (inactive) | 15.2 µM (inactive) | 6.95 µM (inactive) | 1.83 µM (inactive) | 10.8 µM (inactive) | 11 µM (inactive) | 3.28 µM (inactive) | 9.42 µM (inactive) | 12.5 µM (inactive) | 9.38 µM (inactive) | 7.8 µM (inactive) | 15 µM (inactive)
12 | CC(C)C(C=O)C(O)(C(F)(F)F)C(F)(F)F (stereo unspecified) | 11.3 µM (inactive) | > 100 µM (inactive) | > 100 µM (inactive) | > 100 µM (inactive) | > 100 µM (inactive) | > 100 µM (inactive) | > 100 µM (inactive) | > 100 µM (inactive) | 59.3 µM (inactive) |  | > 100 µM (inactive) | > 100 µM (inactive) | > 100 µM (inactive) | > 100 µM (inactive) | > 100 µM (inactive) | > 100 µM (inactive) | > 100 µM (inactive) | > 100 µM (inactive) | > 100 µM (inactive) | > 100 µM (inactive)
13 | FC(F)(F)C1(C(F)(F)F)O[Si]2(OC(C(F)(F)F)(C(F)(F)F)c3ccccc32)c2ccccc21 | 14.6 µM (inactive) | 7.66 µM (inactive) | 17.2 µM (inactive) | 12 µM (inactive) | 5.55 µM (inactive) | 9.44 µM (inactive) | 3.69 µM (inactive) | 15.8 µM (inactive) | 11.9 µM (inactive) | 9.02 µM (inactive) | 10.6 µM (inactive) | 14.5 µM (inactive) | 13.6 µM (inactive) | 13.7 µM (inactive) | 9.12 µM (inactive) | 9.95 µM (inactive) | 17.1 µM (inactive) | 10.3 µM (inactive) | 13.5 µM (inactive) | 11.3 µM (inactive)
14 | CC(=O)NC1=C(C)C(=O)c2c(nc3n2CCC3OC(=O)c2ccccc2)C1=N (stereo unspecified) | 2.37 µM (inactive) | 1.76 µM (inactive) | 1.31 µM (inactive) | 1.8 µM (inactive) | 0.314 µM (active) | 0.406 µM (active) | 2.15 µM (inactive) | 3.36 µM (inactive) | 2.06 µM (inactive) | 1.72 µM (inactive) | 1.46 µM (inactive) | 2.98 µM (inactive) | 1.21 µM (inactive) | 1.96 µM (inactive) | 2.04 µM (inactive) | 1.85 µM (inactive) | 4.55 µM (inactive) | 1.79 µM (inactive) | 3.18 µM (inactive) | 0.166 µM (active)
